Results published in patent US8664243B2, “Sulfonamide compound and crystal thereof” (Asahi Kasei Pharma Corporation, priority 2007, dated 2014).

Experiments:
Assay type in all cases: physicochemical
[1] = Hygroscopicity Test 2 (25° C. and 84% RH; free base, salts and salt mixtures); settings: for Appearance / Water content / Purity: 25° C. and 84% RH, dark; for Purity: HPLC
Method: (§1) Hygroscopicity of Compound 1 or the substance in the form of a salt can be evaluated by putting a sample on a glass weighing dish, storing the dish in a dark place for a given period of time in an open state at a temperature of 25 to 40° C. under a humidification condition of about 75 to 94% relative humidity, and then observing or measuring appearance, purity, water content and the like of Compound 1 or the substance in the form of a salt. Increase of water content before and after storage especially serves as an important hygroscopic index. For example, the evaluation is preferably performed after storage conditions of 25° C. and 84% RH. • High performance liquid chromatography apparatus: LC-10A Series (Shimadzu) or Agilent 1100 series (Agilent Technologies) • Solution concentration: 500 μg/ml • Injection: 10 μl • Detector: Ultraviolet absorptiometer (measurement wavelength: 245 nm) • Column: XBridge Shield RP18 5 μm, internal diameter: 4.6 mm, length: 15 cm (Waters) • Column temperature: Constant temperature around 40° C. • Mobile phase A: 20 mmol/l Sodium phosphate buffer (pH 7.0) • Mobile phase B: Acetonitrile • Liquid feeding program: A concentration gradient was formed by changing the mixing ratio of the mobile phase A and the mobile phase B as shown in Table 1. • Flow rate: 1.0 ml/minute • Water content measurement apparatus: AQ-7 (Hiranuma Sangyo) • Sample amount: 5 mg • Anolyte: Aqualyte RS (Sigma-Aldrich) • Catholyte: Aqualyte CN (Sigma-Aldrich) Compound 1 obtained by a method similar to the method described in Example 1 (two kinds of lots), the monohydrochloride obtained by the method described in Example 3, the dihydrochloride, and mixtures of the monohydrochloride and the dihydrochloride at ratios of 9:1, 8:2, 6:4, 4:6 and 2:8 were weighed on a glass weighing dish in an amount of each 40 mg, and each sample was stored in a dark place at 25° C. and 84% RH for 2 to 4 weeks. After the storage, appearance was evaluated by visual inspection. Further, purity was measured under the conditions of Test Example 7, and water content was measured under the conditions of Test Example 8.

[2] = Thermal stability test (sealed glass vial, dark place, 60° C.); settings: for Appearance / Water content / Purity: 60° C., dark, sealed vial; for Purity: HPLC
Method: Thermal stability of Compound 1 or the substance in the form of a salt can be evaluated by, for example, sealing a sample in a glass vial or the like, storing the vial under a severe temperature condition such as 40 to 80° C. in a dark place for a given period of time, and then observing or measuring appearance, purity, water content and the like of Compound 1 or the substance in the form of a salt. Change of purity before and after storage especially serves as an important index of thermal stability. For example, the evaluation is preferably performed under a storage condition of 60° C. • High performance liquid chromatography apparatus: LC-10A Series (Shimadzu) or Agilent 1100 series (Agilent Technologies) • Solution concentration: 500 μg/ml • Injection: 10 μl • Detector: Ultraviolet absorptiometer (measurement wavelength: 245 nm) • Column: XBridge Shield RP18 5 μm, internal diameter: 4.6 mm, length: 15 cm (Waters) • Column temperature: Constant temperature around 40° C. • Mobile phase A: 20 mmol/l Sodium phosphate buffer (pH 7.0) • Mobile phase B: Acetonitrile • Liquid feeding program: A concentration gradient was formed by changing the mixing ratio of the mobile phase A and the mobile phase B as shown in Table 1. • Flow rate: 1.0 ml/minute • Water content measurement apparatus: AQ-7 (Hiranuma Sangyo) • Sample amount: 5 mg • Anolyte: Aqualyte RS (Sigma-Aldrich) • Catholyte: Aqualyte CN (Sigma-Aldrich) The monohydrochloride obtained by the method described in Example 3, the monohydrobromide obtained by the method described in Example 4, and the dihydrochloride as a control were weighed in a glass vial in an amount of 40 mg each, and the glass vial was sealed. Each sample was stored in a dark place at 60° C. for 2 to 4 weeks, and after the storage, appearance was evaluated by visual inspection. Further, purity was measured under the conditions of Test Example 7, and water content was measured under the conditions of Test Example 8.

[3] = Hygroscopicity Test 1 (open glass weighing dish, dark place, 25° C. and 84% RH); settings: for Appearance / Water content / Purity: 25° C. and 84% RH, dark, open; for Purity: HPLC
Method: as §1, with “(Sigma-Aldrich) The” for “(Sigma-Aldrich) Compound 1 obtained by a method similar to the method described in Example 1 (two kinds of lots), the”, “the monohydrobromide obtained by” for “the dihydrochloride, and mixtures of”, “the method described in Example 4,” for “the monohydrochloride”, “dihydrochloride as a control” for “dihydrochloride at ratios of 9:1, 8:2, 6:4, 4:6 and 2:8”, “of” for “of each”, “40 mg each,” for “40 mg,”

[4] = Measurement of water content (coulometric titration method); settings: as prepared, sample 5 mg
Excerpt: For evaluation of purity of Compound 1 or the substance in the form of a salt, the area percentage method based on HPLC is convenient. For evaluation of water content of Compound 1 or the substance in the form of a salt, the volumetric titration method, the coulometric titration method described in Japanese Pharmacopoeia, General Test Methods, “Water Determination”, the loss on drying test and the like can be used. When sample weight is small, the coulometric titration method can be preferably chosen.

[5] = storage for two weeks at 25° C. and 84% RH
[6] = after storage at 60° C. for 4 weeks
[7] = after storage at 25° C. and 84% RH for 4 weeks

| Appearance ([1]; after 2 weeks) | Appearance ([1]; before storage) | Purity ([1]; after 2 weeks) [%] | Purity ([1]; before storage) [%] | Appearance ([2]; after 2 weeks) | Water content ([2]; after 2 weeks) [%] | Appearance ([2]; before storage) | Water content ([2]; before storage) [%] | Purity ([2]; after 2 weeks) [%] | Purity ([2]; before storage) [%] | Appearance ([3]; after 2 weeks) | Water content ([3]; after 2 weeks) [%] | Appearance ([3]; before storage) | Water content ([3]; before storage) [%] | Purity ([3]; after 2 weeks) [%] | Purity ([3]; before storage) [%] | Structure (SMILES) | other results |
| --- | --- | --- | --- | --- | --- | --- | --- | --- | --- | --- | --- | --- | --- | --- | --- | --- | --- |
| Slightly | Slightly | 99.9 | 99.9 |  |  |  |  |  |  |  |  |  |  |  |  | CN[C@H]1CCN(S(=O)(=O)c2cccc3cncc(Cl)c23)C1 [Compound 1, (S)-1-(4-chloro-5-isoquinolinesulfonyl)-3-(methylamino)pyrrolidine] | Water content ([1]; after 2 weeks, listed as Compound 1 (Lot 1)): 5.7%; Water content ([1]; after 2 weeks, listed as Compound 1 (Lot 2)): 7.6%; Appearance ([1]; after 4 weeks): Slightly; Water content ([1]; after 4 weeks, listed as Compound 1 (Lot 1)): 8.1%; Water content ([1]; after 4 weeks, listed as Compound 1 (Lot 2)): 9.1%; Water content ([1]; before storage, listed as Compound 1 (Lot 1)): 0.9%; Water content ([1]; before storage, listed as Compound 1 (Lot 2)): 1.7%; Purity ([1]; after 4 weeks): 99.9%; Moisture absorption ([1]; both lots, after storage at 25° C. and 84% RH for 4 weeks): further moisture absorption |
| Pale | White | 99.9 | 100.0 | Pale brown | 2.93 | White | 3.76 | 99.5 | 98.1 | Brown | 15.24 | White | 3.76 | 99.3 | 98.1 | CN[C@H]1CCN(S(=O)(=O)c2cccc3cncc(Cl)c23)C1.Cl.Cl [Dihydrochloride, (S)-1-(4-chloro-5-isoquinolinesulfonyl)-3-(methylamino)pyrrolidine dihydrochloride, reference compound] | Water content ([1]; after 2 weeks): 19.8%; Water content ([1]; before storage): 5.2%; Change of appearance ([2]; after storage at 60° C. for 2 weeks, dihydrochloride): change of appearance; Changes in physicochemical properties ([2]; stability test at 60° C. for two weeks): changes in physicochemical properties; Moisture absorption ([3]; after storage at 25° C. and 84% RH for 2 weeks): marked moisture absorption; Change of appearance ([3]; after storage at 25° C. and 84% RH for 2 weeks, dihydrochloride): apparent change of appearance; Changes in physicochemical properties [3, 5]: changes in physicochemical properties; Hygroscopicity [3, 5]: remarkable hygroscopicity |
|  |  |  |  | White | 0.05 | White | 0.14 | 99.9 | 99.7 | White | 0.05 | White | 0.14 | 99.9 | 99.7 | Br.CN[C@H]1CCN(S(=O)(=O)c2cccc3cncc(Cl)c23)C1 [Monohydrobromide, (S)-1-(4-chloro-5-isoquinolinesulfonyl)-3-(methylamino)pyrrolidine monohydrobromide] | Water content [4]: 0.14%; Appearance ([2]; after 4 weeks): White; Water content ([2]; after 4 weeks): 0.05%; Purity ([2]; after 4 weeks): 99.8%; Thermal stability compared with the dihydrochloride ([2]; Test Example 9, 60° C.): more satisfactory thermal stability; Change of appearance [2, 6]: no change of appearance; Degradation of purity [2, 6]: no degradation of purity; Appearance ([3]; after 4 weeks): White; Water content ([3]; after 4 weeks): 0.05%; Purity ([3]; after 4 weeks): 99.7%; Hygroscopicity compared with the dihydrochloride ([3]; Test Example 10, 25° C. and 84% RH): remarkably lower hygroscopicity; Change of appearance [3, 7]: no change of appearance; Degradation of purity [3, 7]: no degradation of purity; Increase of water content [3, 7]: no substantial increase of water content |
